Experimental data taken from patent US20070244103A1, “Novel Compounds Having an Anti-Bacterial Activity” (Morphochem Aktiengesellschaft Fur Kombinatorische Chemie, priority 2004, published 2007).

Assay: MIC of the examples against various organisms
Format: cell-based
Settings: against at least two of the above organisms (12-strain panel)
Method: The MIC (μg/ml) of the examples against various organisms was determined: A. baumannii ATCC19606, E. cloacae ATCC23355, E. coli ATCC25922, K. pneumoniae ATCC27736, P. mirabilis ATCC29906, P. aeruginosa ATCC27853, S. maltophilia ATCC13637, S. aureus ATCC43300, S. epidermidis ATCC14990, S. haemolyticus ATCC29970, E. faecalis ATCC29212 and E. faecium ATC19434.

MIC [µg/mL]	Compound
≤ 2	COc1ccc2nccc(C(O)CN3CCOC(CNCc4ccc5c(c4)OCCO5)C3)c2n1 (stereo not shown) [Example 31, 2-(2-{[(2,3-Dihydro-benzo[1,4]dioxin-6-ylmethyl)-amino]-methyl}-morpholin-4-yl)-1-(6-methoxy-[1,5]naphthyridin-4-yl)-ethanol]
≤ 2	COc1ccc2nccc(C(O)CN3CCOC(CNCc4ccc5c(c4)NC(=O)CS5)C3)c2n1 (stereo not shown) [Example 32, 6-[({4-[2-Hydroxy-2-(6-methoxy-[1,5]naphthyridin-4-yl)-ethyl]-morpholin-2-ylmethyl}amino)-methyl]-4H-benzo[1,4]thiazin-3-one]
≤ 2	COc1ccc2nccc(C(O)CN3CCOC(CNCc4ccc5c(n4)NC(=O)CS5)C3)c2n1 (stereo not shown) [Example 33, 6-[({4-[2-Hydroxy-2-(6-methoxy-[1,5]naphthyridin-4-yl)-ethyl]-morpholin-2-ylmethyl}amino)-methyl]-4H-pyrido[3,2-b][1,4]thiazin-3-one]
≤ 2	COc1ccc2nccc(C(O)CN3CCOC(CNCc4ccc5c(c4)NC(=O)CO5)C3)c2n1 (stereo not shown) [Example 34, 6-[({4-[2-Hydroxy-2-(6-methoxy-[1,5]naphthyridin-4-yl)-ethyl]-morpholin-2-ylmethyl}amino)-methyl]-4H-benzo[1,4]oxazin-3-one]
≤ 2	COc1ccc2nccc(NC(=O)C3CCCC(CNC/C=C/c4ccccc4)C3)c2c1 (stereo not shown) [Example 53, 3-[((E)-3-Phenyl-allylamino)-methyl]-cyclohexanecarboxylic acid (6-methoxy-quinolin-4-yl)-amide]
≤ 2	COc1cnc2cccc(C(O)CN3CCCC(CNCc4ccc5c(c4)NC(=O)CO5)C3)c2n1 (stereo not shown) [Example 87, 6-[({1-[2-Hydroxy-2-(3-methoxy-quinoxalin-5-yl)-ethyl]-piperidin-3-ylmethyl}-amino)-methyl]-4H-benzo[1,4]oxazin-3-one]
≤ 2	COc1cnc2cccc(C(O)CN3CCCC(CNCc4cc5c(cn4)OCCO5)C3)c2n1 (stereo not shown) [Example 88, 2-(3-{[(2,3-Dihydro-[1,4]dioxino[2,3-c]pyridin-7-ylmethyl)-amino]-methyl}-piperidin-1-yl)-1-(3-methoxyquinoxalin-5-yl)-ethanol]
≤ 2	COc1cnc2cccc(C(O)CN3CCCC(CNCc4cc5c(cc4F)SCC(=O)N5)C3)c2n1 (stereo not shown) [Example 89, 7-Fluoro-6-[({1-[2-hydroxy-2-(3-methoxy-quinoxalin-5-yl)-ethyl]-piperidin-3-ylmethyl}-amino)-methyl]-4H-benzo[1,4]thiazin-3-one]
≤ 2	COc1cnc2cccc(C(O)CN3CCCC(CNCc4ccc5c(n4)NC(=O)CS5)C3)c2n1 (stereo not shown) [Example 90, 6-[({1-[2-Hydroxy-2-(3-methoxy-quinoxalin-5-yl)-ethyl]-piperidin-3-ylmethyl}-amino)-methyl]-4H-pyrido[3,2-b][1,4]thiazin-3-one]
≤ 2	COc1cnc2cccc(C(O)CN3CCCC(CNCc4ccc5c(c4)NC(=O)CS5)C3)c2n1 (stereo not shown) [Example 91, 6-[({1-[2-Hydroxy-2-(3-methoxy-quinoxalin-5-yl)-ethyl]-piperidin-3-ylmethyl}-amino)-methyl]-4H-benzo[1,4]thiazin-3-one]
≤ 2	COc1cnc2cccc(C(O)CN3CCCC(CNCc4ccc5c(c4)OCCO5)C3)c2n1 (stereo not shown) [Example 92, 2-(3-{[(2,3-Dihydro-benzo[1,4]dioxin-6-ylmethyl)-amino]-methyl}-piperidin-1-yl)-1-(3-methoxy-quinoxalin-5-yl)-ethanol]
≤ 2	COc1cnc2ccc(Cl)c(C(O)CN3CCCC(CNCc4ccc5c(c4)NC(=O)CO5)C3)c2n1 (stereo not shown) [Example 93, 6-[({1-[2-(6-Chloro-3-methoxy-quinoxalin-5-yl)-2-hydroxy-ethyl]-piperidin-3-ylmethyl}-amino)-methyl]-4H-benzo[1,4]oxazin-3-one]
≤ 2	COc1cnc2ccc(Cl)c(C(O)CN3CCCC(CNCc4ccc5c(c4)OCO5)C3)c2n1 (stereo not shown) [Example 94, 2-(3-{[(Benzo[1,3]dioxol-5-ylmethyl)-amino]-methyl}-piperidin-1-yl)-1-(6-chloro-3-methoxy-quinoxalin-5-yl)-ethanol]
≤ 2	COc1cnc2ccc(Cl)c(C(O)CN3CCCC(CNCc4ccc5c(c4)OCCO5)C3)c2n1 (stereo not shown) [Example 95, 1-(6-Chloro-3-methoxy-quinoxalin-5-yl)-2-(3-{[(2,3-dihydro-benzo[1,4]dioxin-6-ylmethyl)-amino]-methyl}-piperidin-1-yl)-ethanol]
≤ 2	COc1cnc2ccc(Cl)c(C(O)CN3CCCC(CNCc4ccc5c(c4)NC(=O)CS5)C3)c2n1 (stereo not shown) [Example 96, 6-[({1-[2-(6-Chloro-3-methoxy-quinoxalin-5-yl)-2-hydroxy-ethyl]-piperidin-3-ylmethyl}-amino)-methyl]-4H-benzo[1,4]thiazin-3-one]
≤ 2	COc1cnc2ccc(Cl)c(C(O)CN3CCCC(CNCc4cc5c(cn4)OCCO5)C3)c2n1 (stereo not shown) [Example 97, 1-(6-Chloro-3-methoxy-quinoxalin-5-yl)-2-(3-{[(2,3-dihydro-[1,4]dioxino[2,3-c]-pyridin-7-ylmethyl)-amino]-methyl}-piperidin-1-yl)-ethanol]
≤ 2	COc1cnc2ccc(Cl)c(C(O)CN3CCCC(CNCc4cc5c(cc4F)SCC(=O)N5)C3)c2n1 (stereo not shown) [Example 98, 6-[({1-[2-(6-Chloro-3-methoxy-quinoxalin-5-yl)-2-hydroxy-ethyl]-piperidin-3-ylmethyl}-amino)-methyl]-7-fluoro-4H-benzo[1,4]thiazin-3-one]
≤ 2	COc1cnc2ccc(Cl)c(C(O)CN3CCCC(CNC/C=C/c4ccccc4)C3)c2n1 (stereo not shown) [Example 99, 1-(6-Chloro-3-methoxy-quinoxalin-5-yl)-2-{3-[((E)-3-phenyl-allylamino)-methyl]-piperidin-1-yl}-ethanol]
≤ 2	COc1cnc2cccc(NC(=O)C3CCCC(CNCc4ccc5c(n4)NC(=O)CS5)C3)c2n1 (stereo not shown) [Example 105, 3-{[(3-Oxo-3,4-dihydro-2H-pyrido[3,2-b][1,4]thiazin-6-ylmethyl)-amino]-methyl}-cyclohexanecarboxylic acid (3-methoxy-quinoxalin-5-yl)-amide]

Compound	MIC [µg/mL]
COc1ccc2ncc(Cl)c(C(O)CN3C4CCC3CC(NCc3cc5c(cn3)OCCO5)C4)c2n1 (stereo not shown) [Example 30, 1-(3-Chloro-6-methoxy-[1,5]-naphthyridin-4-yl)-2-{3-[(2,3-dihydro-[1,4]dioxino[2,3-c]pyridin-7-ylmethyl)-amino]-8-aza-bicyclo[3.2.1]oct-8-yl}-ethanol]	≤ 2
COc1cnc2cccc(C(O)CN3C4CCC3CC(NC/C=C/c3ccccc3)C4)c2c1 (stereo not shown) [Example 38, 1-(3-Methoxy-quinolin-5-yl)-2-[3-((E)-3-phenylallylamino)-8-aza-bicyclo[3.2.1]oct-8-yl]-ethanol]	≤ 2
COc1cnc2cccc(C(O)CN3C4CCC3CC(NCc3ccc5c(c3)OCCO5)C4)c2c1 (stereo not shown) [Example 39, 2-{3-[(2,3-Dihydro-benzo[1,4]dioxin-6-ylmethyl)-amino]-8-aza-bicyclo[3.2.1]oct-8-yl}-1-(3-methoxy-quinolin-5-yl)-ethanol]	≤ 2
COc1cnc2cccc(C(O)CN3C4CCC3CC(NCc3ccc5nsnc5c3)C4)c2c1 (stereo not shown) [Example 40, 2-{3-[(Benzo[1,2,5]thiadiazol-5-ylmethyl)-amino]-8-aza-bicyclo[3.2.1]oct-8-yl}-1-(3-methoxy-quinolin-5-yl)-ethanol]	≤ 2
COc1cnc2cccc(C(O)CN3C4CCC3CC(NCc3ccc5c(c3)OCCO5)C4)c2n1 (stereo not shown) [Example 78, 2-{3-[(2,3-Dihydro-benzo[1,4]dioxin-6-ylmethyl)-amino]-8-aza-bicyclo[3.2.1]oct-8-yl}-1-(3-methoxy-quinoxalin-5-yl)-ethanol]	≤ 2
COc1cnc2cccc(C(O)CN3C4CCC3CC(NCc3ccc5c(n3)NC(=O)CS5)C4)c2n1 (stereo not shown) [Example 79, 6-({8-[2-Hydroxy-2-(3-methoxy-quinoxalin-5-yl)-ethyl]-8-aza-bicyclo[3.2.1]oct-3-ylamino}-methyl)-4H-pyrido[3,2-b][1,4]thiazin-3-one]	≤ 2
COc1cnc2cccc(C(O)CN3C4CCC3CC(NCc3ccc5c(c3)NC(=O)CO5)C4)c2n1 (stereo not shown) [Example 80, 6-({8-[2-Hydroxy-2-(3-methoxy-quinoxalin-5-yl)-ethyl]-8-aza-bicyclo[3.2.1]oct-3-ylamino}-methyl)-4H-benzo[1,4]oxazin-3-one]	≤ 2
COc1cnc2cccc(C(O)CN3C4CCC3CC(NCc3ccc5c(c3)OCO5)C4)c2n1 (stereo not shown) [Example 81, 2-{3-[(Benzo[1,3]dioxol-5-ylmethyl)-amino]-8-aza-bicyclo[3.2.1]oct-8-yl}-1-(3-methoxy-quinoxalin-5-yl)-ethanol]	≤ 2
COc1cnc2cccc(C(O)CN3C4CCC3CC(NCc3ccc5nsnc5c3)C4)c2n1 (stereo not shown) [Example 82, 2-{3-[(Benzo[1,2,5]thiadiazol-5-ylmethyl)-amino]-8-aza-bicyclo[3.2.1]oct-8-yl}-1-(3-methoxy-quinoxalin-5-yl)-ethanol]	≤ 2
COc1cnc2cccc(C(O)CN3C4CCC3CC(NCc3cc5c(cc3F)SCC(=O)N5)C4)c2n1 (stereo not shown) [Example 84, 7-Fluoro-6-({8-[2-hydroxy-2-(3-methoxy-quinoxalin-5-yl)-ethyl]-8-aza-bicyclo[3.2.1]oct-3-ylamino}-methyl)-4H-benzo[1,4]thiazin-3-one]	≤ 2
COc1cnc2cccc(C(O)CN3C4CCC3CC(NCc3ccc5c(c3)NC(=O)CS5)C4)c2n1 (stereo not shown) [Example 85, 6-({8-[2-Hydroxy-2-(3-methoxy-quinoxalin-5-yl)-ethyl]-8-aza-bicyclo[3.2.1]oct-3-ylamino}-methyl)-4H-benzo[1,4]thiazin-3-one]	≤ 2
COc1cnc2cccc(C(O)CN3C4CCC3CC(NC/C=C/c3ccccc3)C4)c2n1 (stereo not shown) [Example 86, 1-(3-Methoxy-quinoxalin-5-yl)-2-[3-((E)-3-phenylallylamino)-8-aza-bicyclo[3.2.1]oct-8-yl]-ethanol]	≤ 2
